OC[C@H]1O[C@H](O[C@H]2O[C@H](CO)[C@@H](O)[C@H](O)[C@H]2O)[C@H](O)[C@@H](O)[C@@H]1O
solubility (mole fraction) (in ethanol, 288.15 K): 0.000652 | solubility (mole fraction) (in ethanol, 293.15 K): 0.000701 | solubility (mole fraction) (in ethanol, 298.15 K): 0.000778 | solubility (mole fraction) (in ethanol, 303.15 K): 0.000852 | solubility (mole fraction) (in ethanol, 308.15 K): 0.000905 | solubility (mole fraction) (in ethanol, 313.15 K): 0.000989 | solubility (mole fraction) (in ethanol, 318.15 K): 0.00108 | solubility (mole fraction) (in water, 288.15 K): 0.0344 | solubility (mole fraction) (in water, 293.15 K): 0.0381 | solubility (mole fraction) (in water, 298.15 K): 0.0437 | solubility (mole fraction) (in water, 303.15 K): 0.0545 | solubility (mole fraction) (in water, 308.15 K): 0.0636 | solubility (mole fraction) (in water, 313.15 K): 0.0683 | solubility (mole fraction) (in water, 318.15 K): 0.114
